{"source": "the supplement of paper PMC11208160"}
{"test": "recombinant barcode read abundance after kanamycin selection (control-corrected) (log10(CPM+1)); higher = more efficient recombination; sequences stand for … in AGTGCAGAGAAAATCGGCCAGTTTTCTCTGCCTGCAGTCCGCATGCCGT…AGATTTATGCAGCGGACTGCCTTTCTCCCAAAGTGATAAACCGGACAGTATCATGGACCGGTTTTCCCGGTAATCCGTATTTGCAAGGTTGGTTTCACT; site = the 11-nt target", "procedure,_shortened": "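Recombination efficiency was calculated from barcode counts at recombinant junctions, normalized to counts per million, averaged and corrected by the control. Each value is given as log10(CPM+1). The constructs were Gibson-cloned oligos (promoter, target, barcode, J23119-driven first 104 bridge RNA bases) in a vector with the remaining 73 bp and a T7-inducible recombinase, co-electroporated into E. coli with a donor plasmid and plated in duplicate on chloramphenicol/ampicillin LB agar (control) or chloramphenicol/ampicillin/kanamycin with 0.1 mM IPTG.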"}
{"sequence": "GATCCTACTTGGGTTCTAACCTGTTGCCT (site GGTCCTACTAG)", "recombinant barcode read abundance (log10)": 0.346}
{"sequence": "GAGAGATCTTGGGTTCTAACCTGTTGCCT (site GAGAGATCTAG)", "recombinant barcode read abundance (log10)": 1.46}
{"sequence": "AGATACTCTTGGGTTCTAACCTGTTGCCT (site ACATAGTCTAG)", "recombinant barcode read abundance (log10)": 0.428}
{"sequence": "CCTCCCTCTTGGGTTCTAACCTGTTGCTA (site CCTCCCTCTTA)", "recombinant barcode read abundance (log10)": 1.84}
{"sequence": "GCAAGTTCTTGGGTTCTAACCTGTTGCCT (site GAAAGTTCTAG)", "recombinant barcode read abundance (log10)": 0.113}
{"sequence": "TTGTCGACTTGGGTTCTAACCTGTTGCCA (site TTGTCGACTTG)", "recombinant barcode read abundance (log10)": 0.087}
{"sequence": "TTACAGGCTTGGGTTCTAACCTGTTGCCG (site TTACAGGCTCG)", "recombinant barcode read abundance (log10)": 1.13}
{"sequence": "CAAGTACCTTGGGTTCTAACCTGTTGCCT (site TAAGTACCTAG)", "recombinant barcode read abundance (log10)": 0.22}
{"sequence": "GGGAATGCTTGGGTTCTAACCTGTTGCCT (site GGGAATGCTAG)", "recombinant barcode read abundance (log10)": 2.35}
{"sequence": "TCCCACTCTTGGGTTCTAACCTGTTGCCT (site TCGCACTCTAG)", "recombinant barcode read abundance (log10)": 0.0564}
{"sequence": "ACCACAGCTTGGGTTCTAACCTGTTGCCT (site ACCACAGCTAG)", "recombinant barcode read abundance (log10)": 0.283}
{"sequence": "GTGGACTCTTGGGTTCTAACCTGTTGCTA (site GTGTACTCTAA)", "recombinant barcode read abundance (log10)": 0.0609}
{"sequence": "TAGCCTTCTTGGGTTCTAACCTGTTGCCT (site TCGCCTTCTAG)", "recombinant barcode read abundance (log10)": 0.204}
{"sequence": "GTCGCTACTTGGGTTCTAACCTGTTGCGG (site GTCTCTACTCC)", "recombinant barcode read abundance (log10)": 0.667}
{"sequence": "GCGCGCCCTTGGGTTCTAACCTGTTGCGG (site GCGCGCCCTCA)", "recombinant barcode read abundance (log10)": 0.101}
{"sequence": "CGCAAATCTTGGGTTCTAACCTGTTGCCT (site CGGAAATCTAG)", "recombinant barcode read abundance (log10)": 0.0907}
{"sequence": "TTAGTAGCTTGGGTTCTAACCTGTTGCCT (site TTAGTAGCTAG)", "recombinant barcode read abundance (log10)": 1.84}
{"sequence": "ACAAATCCTTGGGTTCTAACCTGTTGCCT (site ACAAAACCTAG)", "recombinant barcode read abundance (log10)": 0.116}
{"sequence": "ACAGAGACTTGGGTTCTAACCTGTTGCAG (site ACGTAGACTCT)", "recombinant barcode read abundance (log10)": 0.113}
{"sequence": "AAGCATTCTTGGGTTCTAACCTGTTGCCT (site AAGCACTCTAG)", "recombinant barcode read abundance (log10)": 0.111}
{"sequence": "TCGGGATCTTGGGTTCTAACCTGTTGCCT (site CCGGGATCTAG)", "recombinant barcode read abundance (log10)": 0.184}
{"sequence": "CCATGAACTTGGGTTCTAACCTGTTGCCA (site CCATCAACTAG)", "recombinant barcode read abundance (log10)": 0.131}
{"sequence": "TCTAATTCTTGGGTTCTAACCTGTTGCAT (site TCTGACTCTAT)", "recombinant barcode read abundance (log10)": 0.186}
{"sequence": "CTTGGGCCTTGGGTTCTAACCTGTTGCGG (site CTTGGGCCTCC)", "recombinant barcode read abundance (log10)": 2.67}
{"sequence": "TGGCCCTCTTGGGTTCTAACCTGTTGCTA (site TGGCCCTCTGA)", "recombinant barcode read abundance (log10)": 0.0109}
{"sequence": "ACGTCAACTTGGGTTCTAACCTGTTGCCT (site ACATCAACTAG)", "recombinant barcode read abundance (log10)": 0.192}
{"sequence": "CACAGTACTTGGGTTCTAACCTGTTGCCT (site AACAGTACTAG)", "recombinant barcode read abundance (log10)": 0.0407}
{"sequence": "CCGTCAACTTGGGTTCTAACCTGTTGCCT (site GTACTCTCTCT)", "recombinant barcode read abundance (log10)": 0.0368}
{"sequence": "GCCGAGACTTGGGTTCTAACCTGTTGCCT (site GCCGATACTAG)", "recombinant barcode read abundance (log10)": 0.121}
{"sequence": "GCACAACCTTGGGTTCTAACCTGTTGCCT (site GCACGACCTAG)", "recombinant barcode read abundance (log10)": 0.214}
{"sequence": "TAGTAGTCTTGGGTTCTAACCTGTTGCAT (site TAGTAGTCTAG)", "recombinant barcode read abundance (log10)": 0.596}
{"sequence": "CCTACAACTTGGGTTCTAACCTGTTGCCT (site CCTACAGCTAG)", "recombinant barcode read abundance (log10)": 0.138}
{"sequence": "GGGTCCTCTTGGGTTCTAACCTGTTGCCC (site GGGTCCTCTAG)", "recombinant barcode read abundance (log10)": 1.36}
{"sequence": "GGTGGGACTTGGGTTCTAACCTGTTGCAC (site AAATCTGCTAG)", "recombinant barcode read abundance (log10)": 0.259}
{"sequence": "AAGCATCCTTGGGTTCTAACCTGTTGCCT (site AAGCATCCTAG)", "recombinant barcode read abundance (log10)": 1.07}
{"sequence": "GGAATACCTTGGGTTCTAACCTGTTGCCT (site GGAATCCCTAG)", "recombinant barcode read abundance (log10)": 0.157}
{"sequence": "CGAGCTCCTTGGGTTCTAACCTGTTGCTT (site CGAGCTCCTAC)", "recombinant barcode read abundance (log10)": 0.0191}
{"sequence": "TGTAGCACTTGGGTTCTAACCTGTTGCAC (site TGTAGCACTGT)", "recombinant barcode read abundance (log10)": 0.0233}
{"sequence": "CCGCTAGCTTGGGTTCTAACCTGTTGCCT (site ACGCTAGCTAG)", "recombinant barcode read abundance (log10)": 0.0362}
{"sequence": "TCGTACCCTTGGGTTCTAACCTGTTGCGA (site TCGTACCCTTC)", "recombinant barcode read abundance (log10)": 0.617}
{"sequence": "TAAGACGCTTGGGTTCTAACCTGTTGCCT (site TAGGACGCTAG)", "recombinant barcode read abundance (log10)": 0.729}
{"sequence": "TAGGCTCCTTGGGTTCTAACCTGTTGCAA (site TAGGCTCCTCT)", "recombinant barcode read abundance (log10)": 0.0906}
{"sequence": "GGCGTCCCTTGGGTTCTAACCTGTTGCCT (site GGCTTCCCTAG)", "recombinant barcode read abundance (log10)": 0.0801}
{"sequence": "TTAAATCCTTGGGTTCTAACCTGTTGCCT (site GTAAATCCTAG)", "recombinant barcode read abundance (log10)": 0.249}
{"sequence": "GACAGTACTTGGGTTCTAACCTGTTGCCT (site GACAGTACTAG)", "recombinant barcode read abundance (log10)": 0.714}
{"sequence": "CGTTCGACTTGGGTTCTAACCTGTTGCCT (site CGTTCCACTAG)", "recombinant barcode read abundance (log10)": 0}
{"sequence": "TAATCGACTTGGGTTCTAACCTGTTGCCT (site TAATCGTCTAG)", "recombinant barcode read abundance (log10)": 0.0431}
{"sequence": "CTAGCCTCTTGGGTTCTAACCTGTTGCAT (site CTACCCTCTAT)", "recombinant barcode read abundance (log10)": 0.582}
{"sequence": "GGCAGCTCTTGGGTTCTAACCTGTTGCTT (site GGCAGATCTAA)", "recombinant barcode read abundance (log10)": 0.367}
{"sequence": "GGGCTTACTTGGGTTCTAACCTGTTGCCT (site GCGCTTACTAG)", "recombinant barcode read abundance (log10)": 0.362}
{"sequence": "GATCCTACTTGGGTTCTAACCTGTTGCCT (site GCTCCTACTAG)", "recombinant barcode read abundance (log10)": 0.0495}
{"sequence": "CTAATTGCTTGGGTTCTAACCTGTTGCAA (site CTATTTGCTTT)", "recombinant barcode read abundance (log10)": 0.0237}
{"sequence": "AGACGTACTTGGGTTCTAACCTGTTGCCT (site AGGCGTACTAG)", "recombinant barcode read abundance (log10)": 0.128}
{"sequence": "CTACTAACTTGGGTTCTAACCTGTTGCTT (site CTACTAACTAA)", "recombinant barcode read abundance (log10)": 0.316}
{"sequence": "CATTGTCCTTGGGTTCTAACCTGTTGCGT (site CATTGTCCTAC)", "recombinant barcode read abundance (log10)": 1.38}
{"sequence": "TGTGCAACTTGGGTTCTAACCTGTTGCTG (site TGTGCAACTCA)", "recombinant barcode read abundance (log10)": 0.284}
{"sequence": "TCTGGGGCTTGGGTTCTAACCTGTTGCTG (site TCTGGGGCTCA)", "recombinant barcode read abundance (log10)": 2.04}
{"sequence": "GGAGCCTCTTGGGTTCTAACCTGTTGCTC (site GGAGCCTCTGA)", "recombinant barcode read abundance (log10)": 1.7}
{"sequence": "CCGTTATCTTGGGTTCTAACCTGTTGCCT (site CCGCTATCTAG)", "recombinant barcode read abundance (log10)": 0}
{"sequence": "TTAGTGGCTTGGGTTCTAACCTGTTGCCT (site TTAGTTGCTAG)", "recombinant barcode read abundance (log10)": 0.0338}
{"sequence": "CTGAGCCCTTGGGTTCTAACCTGTTGCCT (site CTGTGCCCTAG)", "recombinant barcode read abundance (log10)": 0.0331}
{"sequence": "ATGGACACTTGGGTTCTAACCTGTTGCGT (site GACTGGCCTCT)", "recombinant barcode read abundance (log10)": 0.133}
{"sequence": "CCGGTCCCTTGGGTTCTAACCTGTTGCAG (site CCGGTCCCTCT)", "recombinant barcode read abundance (log10)": 2.07}
{"sequence": "ATTTCGACTTGGGTTCTAACCTGTTGCGG (site ATTTCGACTCC)", "recombinant barcode read abundance (log10)": 0.713}
{"sequence": "TTAGAGACTTGGGTTCTAACCTGTTGCCT (site TTAGAGCCTAG)", "recombinant barcode read abundance (log10)": 0.303}
{"sequence": "CGGGCCTCTTGGGTTCTAACCTGTTGCTT (site CGGGCCTCTAA)", "recombinant barcode read abundance (log10)": 2.03}
